Literature values, collected in paper PMC4186413, “Identification of metabolic pathways and enzyme systems involved in the in vitro human hepatic metabolism of dronedarone, a potent new oral antiarrhythmic drug” (Pharmacology Research & Perspectives, 2014).

Conditions: cited from earlier work

Compound: CCCCc1oc2ccc(NS(C)(=O)=O)cc2c1C(=O)c1ccc(OCCCN(CCCC)CCCC)cc1.Cl [Dronedarone, N-(2-Butyl-3-(4-(3-(dibutylamino)propoxy)benzoyl)-5-benzofuranyl)methanesulfonamide, hydrochloride]
- Increase of dronedarone exposure by ketoconazole (after single dose, clinical findings): 25 fold
- Increase of steady state exposure of metoprolol (dronedarone 400–800 mg twice a day, metoprolol 200 mg daily, CYP2D6 extensive metabolizers, ref Damy et al. [2004]): 1.6- to 2.3 folds
- Increase of steady state concentrations of simvastatin and its active metabolite (healthy volunteers, dronedarone 400 mg BID): 2- to 4 fold
- Dose excreted in feces mainly as metabolites (human, in vivo): 84%
- Eliminated by first-pass metabolism in the liver by CYP3A4 enzymes (human, in vivo): > 84%
- Increase of trough sirolimus concentrations (kidney-transplant patient, 3 day-treatment with twice daily 400 mg dronedarone, ref Tichy et al. [2010]): up to threefold
- Lowering of dronedarone exposure by rifampicin (rifampicin 600 mg once daily for 7 days): 5 fold
